In patent US20060281690A1, “Crystalline (2E,4S)-4-[(N-{[(2R)-1-isopropylpiperidin-2-yI]-carbonyl}-3-methyl-L-valyl)(methyl)amino]-2,5-dimethylhex-2-enoic acid and its pharmaceutical uses” (Eisai Co. Ltd., priority 2005, published 2006):
Several values for one entry are separate records, joined by “and”; a condition that tells them apart may be missing. Equal entries are not always repeated.

How the values were obtained:
[1] = Hygroscopicity studies (vapor sorption isotherm); format: physicochemical
[2] = Solid state stability studies, 21 days; format: physicochemical; conditions: for Total impurities: HPLC area-%
Experimental: The solid-state stability of crystalline E7974-form M1—unsolvated was evaluated for 21 days. […] In addition, a different peak appeared at only a 0.12% level for sample stored at 40° C. and exposed to 75% relative humidity.

[3] = system: several cell lines, including human lung carcinoma, human colon carcinoma and human melanoma; conditions: several cell lines incl. human lung carcinoma; cited from earlier work
[4] = 25° C., visible light (6.8 million lux-hours), 21 d

SMILES | increase in weight ([1]; at 70% RH, 25° C., FIG. 2) | deliquescence ([1]; high relative humidity (% RH), FIG. 1) | water adsorption reversibility ([1]; up to 70% RH) | hygroscopicity classification ([1]; up to 70% RH, criterion: hygroscopic = not less than 3.0% water increase at 75% RH for a week) | hygroscopicity ([1]; vapor sorption isotherm, FIG. 1) | Total impurities ([2]; 25° C., light shield, 21 d) | Wt/Wt ([2]; 25° C., light shield, 21 d, control: −20° C. light shielded sample) | Wt/Wt [2, 4] | Total impurities [2, 4] | Wt/Wt ([2]; 40° C., 75% RH, 21 d) | Total impurities ([2]; 40° C., 75% RH, 21 d) | level of a different new impurity peak ([2]; 40° C., 75% relative humidity, 21 days) | Wt/Wt ([2]; 60° C., light shield, 21 d) | Total impurities ([2]; 60° C., light shield, 21 d) | level of new impurity peaks ([2]; 21 days at 25° C. and visible light, two new peaks) | Total impurities ([2]; Initial, sum of all impurities >0.05%) | changes in the impurity profile ([2]; shielded from light, stored at 25 and 60° C., 21 days) | Total impurities ([2]; −20° C., light shield, 21 d) | antitumor activity [3]
C/C(=C\[C@H](C(C)C)N(C)C(=O)[C@@H](NC(=O)[C@H]1CCCCN1C(C)C)C(C)(C)C)C(=O)O [Crystalline E7974-form M1—unsolvated, (2E,4S)-4-[(N-{[(2R)-1-isopropylpiperidin-2-yl]carbonyl}-3-methyl-L-valyl)(methyl)amino]-2,5-dimethylhex-2-enoic acid] | 1.9% | deliquesces at high relative humidity | reversible up to 70% RH | non-hygroscopic | slightly hygroscopic | 0.76% | 100.3% | 99.9% | 0.87% | 102.2% | 0.89% | 0.12% | 100.9% | 0.78% | 0.05% and 0.09% | 0.72% | No significant changes | 0.72% | 
CN[C@H](C(=O)N[C@H](C(=O)N(C)[C@H](/C=C(\C)C(=O)O)C(C)C)C(C)(C)C)C(C)(C)c1cn(C)c2ccccc12 [Hemiasterlin] |  |  |  |  |  |  |  |  |  |  |  |  |  |  |  |  |  |  | exhibits antitumor activity
